Experimental data: US10688189B1, “Modulated guanidine-containing polymers or nanoparticles” (THE FLORIDA INTERNATIONAL BOARD OF TRUSTEES, priority 2017, dated 2020)

Legend:
[1] = biological target: T1, CFTR (Homo sapiens, UniProt P13569); assay: Ussing chamber apical CFTR activity in NHBE cells; format: cell-based; details: FIG. 12
T1 construct: CFTR is located at the apical side (mucosal) of the airway epithelium; endogenous in cells; host or cells: primary NHBE cells, re-differentiated 21 days at the air-liquid interface
T1 sequence (P13569 whole entry): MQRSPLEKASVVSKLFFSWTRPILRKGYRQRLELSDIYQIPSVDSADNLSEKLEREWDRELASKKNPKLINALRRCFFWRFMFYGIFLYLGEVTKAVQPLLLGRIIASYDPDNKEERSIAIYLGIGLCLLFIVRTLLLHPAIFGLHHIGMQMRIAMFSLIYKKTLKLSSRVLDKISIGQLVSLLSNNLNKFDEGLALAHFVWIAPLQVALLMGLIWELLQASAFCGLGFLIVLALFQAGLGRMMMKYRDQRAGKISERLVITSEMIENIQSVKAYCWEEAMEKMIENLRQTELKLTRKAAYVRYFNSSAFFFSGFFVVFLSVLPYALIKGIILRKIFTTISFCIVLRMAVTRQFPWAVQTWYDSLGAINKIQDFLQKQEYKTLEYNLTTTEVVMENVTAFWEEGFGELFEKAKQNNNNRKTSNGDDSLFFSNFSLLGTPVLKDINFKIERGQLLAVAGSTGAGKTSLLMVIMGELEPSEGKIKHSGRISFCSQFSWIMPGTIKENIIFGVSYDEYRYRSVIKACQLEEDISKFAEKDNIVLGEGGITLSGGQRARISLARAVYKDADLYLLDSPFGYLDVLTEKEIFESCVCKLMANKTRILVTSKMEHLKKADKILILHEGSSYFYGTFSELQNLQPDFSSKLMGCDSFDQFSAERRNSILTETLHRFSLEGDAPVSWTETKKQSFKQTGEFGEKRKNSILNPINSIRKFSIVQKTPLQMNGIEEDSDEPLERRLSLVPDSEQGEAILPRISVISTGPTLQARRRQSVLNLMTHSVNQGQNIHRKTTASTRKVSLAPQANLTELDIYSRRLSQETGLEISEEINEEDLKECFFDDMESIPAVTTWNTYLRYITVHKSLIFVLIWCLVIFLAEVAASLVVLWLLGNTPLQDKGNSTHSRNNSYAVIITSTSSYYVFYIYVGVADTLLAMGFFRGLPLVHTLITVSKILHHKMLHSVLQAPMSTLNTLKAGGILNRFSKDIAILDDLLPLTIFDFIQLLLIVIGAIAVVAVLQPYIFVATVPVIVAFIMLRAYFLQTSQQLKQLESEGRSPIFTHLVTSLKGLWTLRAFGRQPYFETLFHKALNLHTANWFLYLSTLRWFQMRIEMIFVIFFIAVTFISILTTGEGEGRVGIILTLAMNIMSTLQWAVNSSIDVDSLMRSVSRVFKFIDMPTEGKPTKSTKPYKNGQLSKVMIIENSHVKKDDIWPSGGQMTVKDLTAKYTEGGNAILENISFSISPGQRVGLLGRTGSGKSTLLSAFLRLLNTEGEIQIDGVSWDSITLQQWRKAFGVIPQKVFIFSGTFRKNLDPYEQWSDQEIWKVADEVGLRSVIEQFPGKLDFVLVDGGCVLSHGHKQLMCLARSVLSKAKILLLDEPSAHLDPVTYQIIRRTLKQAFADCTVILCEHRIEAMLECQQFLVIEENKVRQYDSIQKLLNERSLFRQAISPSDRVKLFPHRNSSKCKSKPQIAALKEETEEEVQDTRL
From the text: Ussing chamber electrophysiology was used to confirm re-differentiation and polarization as per: Unwalla et al., Am. J. Respir. Cell. Mol. Biol. 2015, 52 (1), 65-74; and Chinnapaiyan et al., Sci Rep. 2018, 8(1), 7984. CFTR is located at the apical side (mucosal) of the airway epithelium. Briefly, NHBE cultures were re-differentiated at the air-liquid interface. Following re-differentiation for 21 days, the snap wells were removed from supports and mounted in Ussing chambers. The short circuit current was measured and allowed to stabilize followed by addition of amiloride (10 μM) added apically to eliminate epithelial sodium channel (ENaC) influences. CFTR activation was affected by addition of albuterol (10 μM) and change in short circuit current (ΔISC) was determined. CFTR specificity was confirmed by addition of CFTR inhibitor CFTRinh172 (20 μM) and the decrease in ΔISC was recorded.

[2] = cited from earlier work

In the case of `O=C(O)c1ccc(/C=C2\SC(=S)N(c3cccc(C(F)(F)F)c3)C2=O)cc1` [CFIRinh172], the “short circuit current after CFTR inhibitor” value ([1]; 20 μM after albuterol) is reported as “decreased current”.
In the case of `N=C(N)N` [Guanidine], the “pKa value of protonated counterpart” value [2] is listed as 12.48.
With `CC(C)(C)NCC(O)c1ccc(O)c(CO)c1` (stereo not drawn) [albuterol] the “short circuit current on CFTR activation” value ([1]; albuterol 10 μM after amiloride) was “sharp current increase occurs immediately”.
